Measured values from patent US11352391B2, “Compositions for inducing urinary voiding and defecation” (Dignify Therapeutics, LLC, priority 2017, dated 2022).
Where a SMILES comes first, the peptide text is derived from it.

Key:
[1] = molecular target: human NK1 Receptor (hNK1R) (Homo sapiens, UniProt P25103); experiment: [3H]-septide radioligand competition binding to human recombinant NK1Rs (CHO-hNK1 membranes); details: displacement of 5.0 nM [3H]-septide, CHO-hNK1 membranes; read-out: hNK1 binding Ki
Experimental: (§1) After removal of the supernatant the cell pellet was washed and collected by re-suspension in PBS and centrifugation.
(§2) Frozen pellets were thawed and homogenized in 10 volumes (w/v) of membrane preparation buffer (50 mM HEPES pH 7.4, 1 mM EDTA, 50 μg/mL bacitracin and protease inhibitors) using a Polytron Ultraturrax (twice for 15 s per cycle). […] Protein concentration was determined using BioRad Protein Assay (Milan, Italy) with a BSA standard curve.

[2] = system: anesthetized dog; experiment: Urine leakage from the bladder in anesthetized dog; format: in vivo; details: IV 3 μg/kg and SC 30 μg/kg, data not shown
Experimental: (§3) Animal preparation: Naïve beagle dogs were fasted for 12-24 hours and received a warm water enema the night prior to, and the morning of, the experiment to clear the rectum and lower colon of feces. The day of the experiment, a 20 gauge IV catheter (Terumo Surflo) was placed in the cephalic vein for anesthetic induction (propofol, 10 mg/kg; IV) and delivery of IV fluids (5-10 ml/kg/hr) and compounds. The sedated dog was intubated with a 5-6 Fr tracheal tube and was maintained on 2-3% isoflurane via a ventilator (15-25 breaths/min; tidal volume […]) for the remainder of the experiment.

[3] = system: anesthetized dog; experiment: Colorectal pressure manometry in anesthetized dog; format: in vivo
Experimental: as §3
Bowel contractility: For colorectal pressure manometry, an ˜3 inch balloon catheter was inserted into the rectum and secured to the tail with tape. This catheter was connected via a three-way stopcock to a pressure transducer (UTAH MEDICAL PRODUCTS; DelTran II) for pressure recording. Data were recorded using PowerLab/8SP acquisition system using LabChart software (version 7.3.7; ADINSTRUMENTS, Australia). Arterial pressure, ECG, temperature and blood oxygen saturation (spO2) were monitored throughout the experiment (MEDTRONIC LIFEPAK12). Dogs were recovered in a quiet room under veterinary supervision.

[4] = Pharmacokinetics in rat plasma after cassette IV bolus dosing; details: Sprague-Dawley, in vivo, iv
Experimental: The concentrations of compounds (SEQ ID NOS: 1-11) were measured in rat plasma after intravenous (IV) bolus dosing to determine pharmacokinetic profiles of individual compounds.
Animal preparation: In vivo studies were performed in anesthetized adult Sprague Dawley rats. Rats were anesthetized with urethane (1.2-1.4 g/kg subcutaneous injection). Surgical procedures were then performed with the addition of isoflurane anesthesia (0.05-1.5% in 02) as needed. A venous cannula was inserted into the jugular vein for intravenous (IV) administration of compounds.
In vivo dosing and plasma sampling: Compounds were divided into two groups (soluble and insoluble). Each group was dosed as a cassette in which four compounds (100 μg/kg each compound) were combined into a single IV bolus injection to anesthetized adult Sprague-Dawley rats. Soluble compounds were dissolved in saline. Insoluble compounds were dissolved in a 10% ethanol/saline solution. Rats were cassette dosed based on weight using 0.1 mg/mL solutions of individual compounds. Blood samples (700 μL) were collected using a carotid artery cannula into EDTA tubes containing ascorbic acid (final concentration 1%), and plasma was isolated.
Bioanalytical assay: A reversed-phase HPLC with Turbo Ion Spray MS/MS detection method was developed for bioanalysis. Mass spec transition and settings were individually optimized for each compound and then compounds were cassetted for HPLC method development and optimization. [^13C9; ^15N] [Lys5,MeLeu9,Nle10]-NKA(4-10) was used as an internal standard (IS). Analyte-to-IS peak area ratios for individual compounds were used to create linear calibration curves (1-20 ng/mL) using 1/×2 weighted least-squares regression analysis for evaluation of method linearity, precision and accuracy. For plasma concentration measurements, plasma samples were spiked with IS, processed by extraction, and analyzed using LC-MS/MS. Positive (M+H)+ ions for individual compounds and IS were monitored in MRM mode.

[5] = molecular target: T1, human NK2 Receptor (hNK2R) (Homo sapiens, UniProt P21452); experiment: [125I]-NKA radioligand competition binding to human recombinant NK2Rs (CHO-hNK2 membranes)
T1 sequence (P21452 1-398): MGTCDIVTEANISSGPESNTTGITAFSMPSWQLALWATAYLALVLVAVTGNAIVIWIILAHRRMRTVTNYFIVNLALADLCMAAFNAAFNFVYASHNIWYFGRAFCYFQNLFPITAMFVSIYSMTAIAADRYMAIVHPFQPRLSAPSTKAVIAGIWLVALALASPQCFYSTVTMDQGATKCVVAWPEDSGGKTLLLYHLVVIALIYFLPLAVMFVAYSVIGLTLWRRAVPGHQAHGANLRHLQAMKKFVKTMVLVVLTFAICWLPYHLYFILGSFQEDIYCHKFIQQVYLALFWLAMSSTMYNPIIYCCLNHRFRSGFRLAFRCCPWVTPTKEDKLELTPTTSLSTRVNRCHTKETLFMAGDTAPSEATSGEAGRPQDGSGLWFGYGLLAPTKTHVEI
Experimental: as §1, §2

[6] = molecular target: recombinant hNK1R expressed in CHO cells (Homo sapiens, UniProt P25103); experiment: Intracellular calcium mobilization (FLIPR) in CHO-hNK1 cells; format: cell-based; details: calcium mobilization, CHO-hNK1 cells; read-out: hNK1 EC50
Experimental: CHO-hNK1 and CHO-hNK2 cells were seeded into black walled clear-bottom 384-well plates) at a density of 10,000 and 15,000 cells per well in 50 μL culture media, respectively, and grown overnight at 37° C. in a humidified CO2-incubator. Cells were washed in washing buffer using the EMBLA 384 instrument, leaving 20 μL of buffer per well after the final aspiration. Cells were then incubated at 37° C. with the cytoplasmic Ca2+ indicator Fluo-4 AM (final concentration 1 μM) in assay buffer (20 mM HEPES, 145 mM NaCl, 5 mM KCl, 5.5 mM glucose, 1 mM MgCl2 and 2 mM CaCl2, pH 7.4, 0.05% Pluronic F-127 and 0.1% BSA) containing 2.5 mM probenecid for […] (cell loading). Cells were then washed 3 times in washing buffer (20 mM HEPES, 145 mM NaCl, 5 mM KCl, 5.5 mM glucose, 1 mM MgCl2 and 2 mM CaCl2, pH 7.4 and 2.5 mM probenecid) using the EMBLA 384 instrument, leaving 30 μL of buffer in each well after the last wash. Loaded cell plates were transferred to the FLIPR machine and calcium responses were monitored as described below. A dual read-out FLIPR protocol was used, allowing for characterization of both agonist and antagonist profiles. For quality control, in each compound plate the signal was monitored by evaluating the responses to the reference standards (NKA and Substance P).
Concentration response curves of compounds were run in duplicate on two different occasions from the same stock solutions. Test solutions were prepared from 10 mM stock solutions in DMSO and 1 μL of each solution was stamped into V-bottom assay plates containing 49 μL assay buffer. The final concentration of DMSO was 0.5% in each well.

Chain of recombinant hNK1R expressed in CHO cells (P25103 whole entry): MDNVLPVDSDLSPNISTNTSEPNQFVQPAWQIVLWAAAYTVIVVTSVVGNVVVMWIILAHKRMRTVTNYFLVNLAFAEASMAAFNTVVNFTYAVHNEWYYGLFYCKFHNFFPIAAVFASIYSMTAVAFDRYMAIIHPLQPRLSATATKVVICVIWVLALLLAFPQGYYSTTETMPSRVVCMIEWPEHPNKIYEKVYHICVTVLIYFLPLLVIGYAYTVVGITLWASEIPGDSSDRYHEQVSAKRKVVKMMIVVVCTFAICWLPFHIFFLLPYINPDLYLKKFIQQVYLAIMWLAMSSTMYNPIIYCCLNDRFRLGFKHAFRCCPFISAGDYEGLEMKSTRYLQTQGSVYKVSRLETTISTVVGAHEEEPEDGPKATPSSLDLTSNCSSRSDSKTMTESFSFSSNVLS
Chain of human NK1 Receptor (hNK1R) (P25103 whole entry): as above

Ki [1]: 331 nM | half-life [4]: 12 to 72 s | level at 10 min ([4]; 100 ug/kg): < 1 ng/mL | Ki ([5]; displacement of 0.1 nM [125I]-NKA, CHO-hNK2 membranes, read-out: hNK2 binding Ki): 0.59 nM | hNK2 selectivity ratio ([5]; ratio of Kis hNK1R/hNK2R): 557.83 | EC50 [6]: 5.84 nM
SMILES: CCCC[C@H](NC(=O)[C@H](CC(C)C)N(C)C(=O)CNC(=O)[C@@H](NC(=O)[C@H](Cc1ccccc1)NC(=O)[C@H](CCCNC(=N)N)NC(=O)[C@@H](N)CC(=O)O)C(C)C)C(N)=O [Compound B, Asp-Arg-Phe-Val-Gly-(NMe-Leu)-Nle-NH2] (HELM PEPTIDE1{D.R.F.V.G.[meL].[Nle].[am]}$$$$V2.0; N-terminus assumed)
urine leakage / induction of voiding [2]: leakage of urine from the bladder | duration of colorectal pressure response ([3]; IV bolus (B and E 3 μg/kg; G 3, 30 and 66 ug/kg)): approximately 7 minutes | duration of colorectal pressure response ([3]; SC 30 μg/kg): over 30 minutes | onset of increase in colorectal pressure ([3]; both IV bolus 3 μg/kg and SC 30 μg/kg): ≤ 3 min
